Key:
rat GnRH receptor = molecular target: T1, rat GnRH receptor (Rattus norvegicus, UniProt P30969); assay: Radioligand binding, 125I-GnRH-A, rat pituitary membranes; design: membranes were prepared from rat pituitary; from tissue; host or cells: rat pituitary; details: read-out: rGnRH IC50
T1 sequence (P30969 1-327): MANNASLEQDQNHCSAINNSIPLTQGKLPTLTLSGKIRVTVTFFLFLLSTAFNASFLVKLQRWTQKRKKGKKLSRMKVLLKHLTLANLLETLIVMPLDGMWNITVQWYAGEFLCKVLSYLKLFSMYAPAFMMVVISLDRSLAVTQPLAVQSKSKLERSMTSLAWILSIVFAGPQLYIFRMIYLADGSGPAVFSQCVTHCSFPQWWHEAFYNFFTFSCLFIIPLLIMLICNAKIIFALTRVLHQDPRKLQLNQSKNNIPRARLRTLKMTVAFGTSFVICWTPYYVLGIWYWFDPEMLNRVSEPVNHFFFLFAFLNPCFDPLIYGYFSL
Protocol: All compounds were diluted in 1% DMSO (final assay concentration) in binding assay buffer. […] Reactions were terminated by rapid filtration onto 96-well Packard GF/C filters soaked in 0.1% polyethyleneimine. Filters were washed three times with PBS buffer, dried and counted on a Packard Topcount by liquid scintillation counting.
Assay conditions were identical for assessing compound activities at other species. […] IC50 values for control peptides and test compounds were calculated utilizing GraphPad Prism™ software.
The reaction mixture was vortexed and incubated for 1 min at room temperature. After one min, the mixture was vortexed and allowed to incubate for an additional minute. 2 ml of 0.5 M acetic acid/1% BSA was added to the reaction tube and the mixture was added to a C18 Sep-Pak cartridge. The cartridge was washed with subsequent washes of 5 ml H2O and 5 ml 0.5M acetic acid and then eluted with 5×1 ml of 60% CH3CN/40% 0.5M acetic acid. The eluate was diluted with 3× volume of HPLC buffer A (0.1% TFA in H2O) and loaded onto a C18 column. […] The radioactive fractions (750 ed/fraction) are collected into clean polypropylene tubes containing 100 μl of 10% BSA. Fractions were assessed for biological activity by radioligand binding.

human GnRH receptor = molecular target: T2, human GnRH receptor (Homo sapiens, UniProt P30968); assay: Radioligand binding, 125I-GnRH-A displacement, membranes of HEK 293 cells with human GnRH receptor; details: read-out: hGnRH IC50
T2 construct: expressed in transfected cells; host or cells: HEK 293 (hGnRH-R/293, from Dr. Stuart Sealfon)
T2 sequence (P30968 1-328): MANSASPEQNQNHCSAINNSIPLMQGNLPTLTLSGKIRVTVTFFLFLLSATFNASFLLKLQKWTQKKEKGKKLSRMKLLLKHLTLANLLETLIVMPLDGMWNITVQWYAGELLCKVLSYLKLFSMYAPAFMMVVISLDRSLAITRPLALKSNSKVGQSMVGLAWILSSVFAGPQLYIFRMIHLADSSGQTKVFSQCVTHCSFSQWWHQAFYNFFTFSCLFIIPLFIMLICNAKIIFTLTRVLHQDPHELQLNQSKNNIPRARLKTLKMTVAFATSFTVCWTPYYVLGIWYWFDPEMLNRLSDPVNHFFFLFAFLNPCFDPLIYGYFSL
In short: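 Bound tracer was separated by filtration through polyethyleneimine-soaked GF/C filters and counted by liquid scintillation. IC50 from curve fitting; other species were tested under the same conditions.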

mouse GnRH receptor = molecular target: T3, mouse GnRH receptor (Mus musculus, UniProt Q01776); assay: Radioligand binding, 125I-GnRH-A, 293 cells expressing mouse GnRH receptors; details: read-out: mGnRH IC50
T3 construct: expressed in transfected cells; host or cells: 293 cells
T3 sequence (Q01776 1-327): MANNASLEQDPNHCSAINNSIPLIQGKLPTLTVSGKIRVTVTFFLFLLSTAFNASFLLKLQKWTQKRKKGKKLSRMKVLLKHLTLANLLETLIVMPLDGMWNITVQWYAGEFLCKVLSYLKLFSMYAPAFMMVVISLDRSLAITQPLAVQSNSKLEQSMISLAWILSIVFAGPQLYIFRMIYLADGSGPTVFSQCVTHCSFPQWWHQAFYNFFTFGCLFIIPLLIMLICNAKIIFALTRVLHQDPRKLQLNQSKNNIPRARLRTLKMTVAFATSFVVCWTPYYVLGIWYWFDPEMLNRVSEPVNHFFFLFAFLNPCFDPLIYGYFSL
In short: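 Bound label captured on 0.1% polyethyleneimine-treated GF/C filters, washed three times with PBS, counted. IC50 derived; identical set-up for every species.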

[1] = Pharmacokinetic studies / bioavailability in rats; type: in vivo, rat
[2] = female, rat, plasma, po, 10 mg/kg, rat female, p.o. 10 mg/kg, 5 mg/ml solution in 10% DMSO 10% cremophor 80% saline

SMILES	IC50 (rat GnRH receptor) [nM]	IC50 (human GnRH receptor) [nM]	IC50 (mouse GnRH receptor) [nM]	also measured
Cc1cc2c(cc1Cc1ccc(C(=O)NCC3CCC(CN)CC3)o1)C(C)(C)CCC2(C)C (stereo not shown) [Compound 75]	740	115	710	
Cc1cc2c(cc1Cc1ccc(C(=O)NCC3CCC(CNCc4cc(=O)[nH]c(=O)[nH]4)CC3)o1)C(C)(C)CCC2(C)C (stereo not shown) [Compound 91]	950	120	790	
Cc1cc2c(cc1Cc1ccc(C(=O)NCC3CCC(CNc4ncc(C#N)c(N)n4)CC3)o1)C(C)(C)CCC2(C)C (stereo not shown) [Compound 94]	1490	315	1300	
Cc1cc(C)nc(NS(=O)(=O)c2ccc(NC(=O)c3ccc(Cc4cc5c(cc4C)C(C)(C)CCC5(C)C)o3)cc2)n1 [Compound 97]	1690	1700		
COc1ccc(OC)c(NC(=O)c2ccc(Cc3cc4c(cc3C)C(C)(C)CCC4(C)C)o2)c1 [Compound 98]	220	80	84	
Cc1cc2c(cc1Cc1ccc(C(=O)NCC3CCCN(C(=O)OC(C)(C)C)C3)o1)C(C)(C)CCC2(C)C (stereo not shown) [Compound 100]	6000	585		
Cc1cc2c(cc1Cc1ccc(C(=O)Nc3ccc(NC(=O)OC(C)(C)C)cc3)o1)C(C)(C)CCC2(C)C [Compound 101]	> 10000	> 10000		
Cc1cc2c(cc1Cc1ccc(C(=O)Nc3ccc(C(N)=O)cc3)o1)C(C)(C)CCC2(C)C [Compound 102]	970	1180		
Cc1cc2c(cc1Cc1ccc(C(=O)NCC3CCN(c4ccnc(Cl)n4)CC3)o1)C(C)(C)CCC2(C)C [Compound 103]	3460	360		
Cc1cc2c(cc1Cc1ccc(C(=O)NCC3CCCC(CNC(=O)C(F)(F)F)C3)o1)C(C)(C)CCC2(C)C (stereo not shown) [Compound 105]	250	22	200	
Cc1cc2c(cc1Cc1ccc(C(=O)NCc3cccc(CNc4ncccn4)c3)o1)C(C)(C)CCC2(C)C [Compound 106]	510	2000		
Cc1cc2c(cc1Cc1ccc(C(=O)Nc3ccc(S(=O)(=O)Nc4ccc(Cl)nn4)cc3)o1)C(C)(C)CCC2(C)C [Compound 107]	> 10000	> 10000		
Cc1cc2c(cc1Cc1ccc(C(=O)NCC3CCC(CNc4ncccn4)CC3)o1)C(C)(C)CCC2(C)C (stereo not shown) [Compound 111]	1740	630		
Cc1cc2c(cc1Cc1ccc(C(=O)NCc3ccc(CN)cc3)o1)C(C)(C)CCC2(C)C [Compound 113]	300	340		
Cc1cc2c(cc1Cc1ccc(C(=O)NCc3cccc(CNC(=O)C(F)(F)F)c3)o1)C(C)(C)CCC2(C)C [Compound 116]	390	1170		
Cc1cc2c(cc1Cc1ccc(C(=O)NC3CCN(c4nccc(NCC5CCCO5)n4)C3)o1)C(C)(C)CCC2(C)C (stereo not shown) [Compound 117]	3000	1810		

More lines, main results first:

IC50 (rat GnRH receptor) [nM]	IC50 (human GnRH receptor) [nM]	IC50 (mouse GnRH receptor) [nM]	SMILES	also measured
430	380		COC(=O)c1cc(OC)c(OC)c(OC)c1NC(=O)c1ccc(Cc2cc3c(cc2C)C(C)(C)CCC3(C)C)o1 [Compound 118]	
> 10000	> 10000		Cc1cc2c(cc1Cc1ccc(C(=O)Nc3cncc(COC(=O)c4ccc(Cc5cc6c(cc5C)C(C)(C)CCC6(C)C)o4)c3)o1)C(C)(C)CCC2(C)C [Compound 120]	
1260	730		COCCCNC(=O)c1ccc(Cc2cc3c(cc2C)C(C)(C)CCC3(C)C)o1 [Compound 122]	
560	135	1050	COC(CCCNC(=O)c1ccc(Cc2cc3c(cc2C)C(C)(C)CCC3(C)C)o1)OC [Compound 125]	
910	510		Cc1cc2c(cc1Cc1ccc(C(=O)NCC3CCCC(CN)C3)o1)C(C)(C)CCC2(C)C (stereo not shown) [Compound 127]	
170	220	220	Cc1cc2c(cc1Cc1ccc(C(=O)NCC3CCN(c4nccc(NCC5CCCO5)n4)CC3)o1)C(C)(C)CCC2(C)C (stereo not shown) [Compound 128]	
590	3000		Cc1cc2c(cc1Cc1ccc(C(=O)NCc3ccc(F)cc3)o1)C(C)(C)CCC2(C)C [Compound 130]	
1630	200	1570	Cc1cc2c(cc1Cc1ccc(C(=O)NCC3CCCC(CNc4ncccn4)C3)o1)C(C)(C)CCC2(C)C (stereo not shown) [Compound 138]	
113	110	150	Cc1cc2c(cc1Cc1ccc(C(=O)NCc3cccc(CN)c3)o1)C(C)(C)CCC2(C)C [Compound 139]	
35	150	64	Cc1cc2c(cc1Cc1ccc(C(=O)NCc3ccc(CNc4nccc(NCC5CCCO5)n4)cc3)o1)C(C)(C)CCC2(C)C (stereo not shown) [Compound 141]	
11	120	21	COCCCNc1ccnc(NCc2cccc(CNC(=O)c3ccc(Cc4cc5c(cc4C)C(C)(C)CCC5(C)C)o3)c2)n1 [Compound 153]	
30	50	22	COc1cc(OC)c(C(C)=O)cc1NC(=O)c1ccc(Cc2cc3c(cc2C)C(C)(C)CCC3(C)C)o1 [Compound 170]	Fp.o. ([1]; rat male, p.o. 20 mg/kg, vehicle per footnote (DMSO/cremophor/saline)): 0 (20 mg/kg)^7%
385	220	570	Cc1cc2c(cc1Cc1ccc(C(=O)NC[C@H]3CC[C@H](CNc4ccnc(NC[C@@H]5CCCO5)n4)CC3)o1)C(C)(C)CCC2(C)C [Compound 174]	
58	130	62	COc1cc(OC)c(NC(=O)c2ccc(Cc3cc(C(C)(C)C)ccc3OC)o2)c(OC)c1 [Compound 203]	
51	5	24	CCC(C)(C)c1ccc(OC)c(Cc2ccc(C(=O)Nc3c(OC)cccc3OC)o2)c1 [Compound 231]	
5.7	19	9	CCC(C)(C)c1ccc(OC)c(Cc2ccc(C(=O)Nc3c(OC)cc(OC)cc3OC)o2)c1 [Compound 232]	
290	80	105	COc1cc(OC)c(NC(=O)c2ccc(Cc3c(OC)cc(C)c(Cl)c3C)o2)c(OC)c1 [Compound 299]	Cmax [1, 2]: 1740 nM; Tmax [1, 2]: 1 h; half-life ([1]; female, rat, plasma, rat female): 2.4 h; Fp.o. ([1]; rat female, 5 mg/ml solution in 10% DMSO 10% cremophor 80% saline): 72% (10 mg/kg)^10
220	167	119	COc1cc(OC)c(NC(=O)c2ccc(Cc3cc(-c4ccccc4)c(C)cc3C)o2)c(OC)c1 [Compound 302]	
